Measured values published in patent US11260048B2, “Compounds and compositions for inhibiting retinal pigment epithelium degeneration and methods using the same” (The Schepens Eye Research Institute, Inc., priority 2017, dated 2022).
Entries after “also recorded” stand apart in the source; their conditions may differ.

What was measured:
ARPE-19 cells [1] = assay: RPE protection assay: ox-LDL-induced cell death, LDH release; type: cell-based, Human; settings: for cytotoxicity at 0.43 µM: compound 0.43 μM; for cytotoxicity at 1.4 µM: compound 1.4 μM; for protective effect against ox-LDL-induced RPE cell death: high dose 10.4 μM; for relative RPE protective activity compared with other compounds: ox-LDL 200 μg/ml (FIGS. 5, 7); for cytotoxicity at 4.3 µM: compound 4.3 μM
Description: FIG. 2 is a graph showing dose-dependent inhibition of ox-LDL-induced RPE death by trolox. […] Data=mean±standard error of the mean (SEM), non-linear regression (GraphPad Prism 6).
FIGS. 5B and 5C are graphs showing RPE protection by selective anti-oxidants with a hindered phenol group. ARPE-19 cells were treated with ox-LDL (200 μg/ml) with and without different concentrations of various anti-oxidants. Cell death was measured by LDH release assay. Data=mean±SEM, *P<0.05, ***P<0.001 compared to ox-LDL group, ANOVA.
FIG. 6 is a graph comparing RPE protection activity of hindered phenol-containing 2,2,5,7,8-pentamethyl-6-chromanol (PMC) and selective inhibitors of nucleotide-binding domain, leucine-rich-containing family, pyrin domain-containing-3 (NLRP3) inflammasome activation. ARPE-19 cells were treated with ox-LDL (200 μg/ml) with and without different concentrations of PMC and selective inhibitors of NLRP3 inflammasome activation, MCC950 and isoliquiritigenin. Cell death was measured by LDH release assay. Data=mean±SEM, ***P<0.001 compared to ox-LDL group, ANOVA.
FIGS. 7B and 7C are graphs that show RPE protection by different experimental analogs of trolox and BHT. ARPE-19 cells were treated with ox-LDL (200 μg/ml) with and without different concentrations of the different analogs of trolox and BHT for 48 hours, cell death was determined by LDH assay. Note that many of the compounds were able to suppress ox-LDL-induced cell death similar to PMC. Data=mean±SEM, *P<0.05, ***P<0.001 compared to ox-LDL group, ANOVA.
ARPE-19 cells: Human ARPE-19 cells (ATCC, Manassas, Va.) were propagated as described previously (Tseng, W. A., et al., Invest Ophthalmol Vis Sci, 2013. 54(1): p. 110-20). Cells were cultured in DMEMIF12 medium (Lonza, Walkersville, Md.) supplemented with 10% fetal bovine serum (FBS) (Atlanta Biologicals, Lawrenceville, Ga.), 2 mM L-glutamine (Lonza), and 100 U/ml penicillin−100 μg/ml streptomycin (Lonza) (complete media), and passaged at a ratio of 1:2 to 1:4 using trypsin-versene (Lonza). Prior to experiments, cells were maintained in 1% FBS medium for about 3 weeks to obtain ARPE-19 cells with differentiated phenotypes. The transepithelial electrical resistance (TER) of each batch of ARPE-19 cells was measured in cells cultured on laminin-coated 0.4 μm-pore transwell membranes (Corning, Mass.) to ensure it was at least 50 ohm·cm2 (EVOM2 Voltohmmeter, World Precision Instruments, Inc., Sarasota, Fla.) before the cells were used for experiments.
ARPE-19 cells were treated with ox-LDL (200 μg/ml) with and without different concentrations of the selected analogs for 48 hours, cell death was determined by LDH assay.

ARPE-19 cells [2] = assay: Lysosomal integrity, LysoTracker staining; type: cell-based, Human
Description: FIG. 3 is a graph showing that trolox dose-dependently suppresses ox-LDL-induced lysosomal destabilization in RPE. ARPE-19 cells were treated with ox-LDL with and without different concentrations of trolox for 36 hours. Lysosomal integrity was determined by LysoTracker staining (ThermoFisher Scientific), followed by image analysis to quantify the number of intact lysosomes per cell. […] Data=mean±SEM, *P<0.05, **P<0.01, ***P<0.001 compared to ox-LDL group, analysis of variance (ANOVA).
(§1) Lysosomal integrity and NF-κB activation: ARPE-19 cells were treated with ox-LDL with and without different concentrations of trolox for 36 hours. Lysosomal integrity was determined by LysoTracker staining (ThermoFisher Scientific), followed by image analysis to quantify the number of intact lysosomes per cell. […] Antibody specific for NF-κB p65 (Cell Signaling, Danvers, Mass.) was used for the immunostaining.

NF-κB = NF-κB activation, nuclear translocation of NF-κB p65 by immunostaining; type: cell-based, Human; settings: ox-LDL 200 μg/ml, trolox 10.4 μM, 36 hours (FIG. 4)
Description: as §1

ARPE-19 cells [3] = assay: ox-LDL-induced ROS formation, ROS-ID Total ROS detection kit; settings: ox-LDL 200 μg/ml, 28 hours (FIG. 1)
[4] = Homo sapiens, ARPE-19, ox-LDL 200 μg/ml, 48 hours, LDH assay, read-out: Protective activity against 200 μg/ml ox-LDL (% cell death, compound concentration)

| SMILES | cytotoxicity at 1.4 µM (ARPE-19 cells [1]; [4]) [%] | cytotoxicity at 4.3 µM (ARPE-19 cells [1]; [4]) [%] | further results |
| --- | --- | --- | --- |
| Cc1c(C)c2c(c(C)c1O)CCC(C)(C(=O)N(C)CCc1cnn(C)c1)O2 (centres unmarked) [J] |  |  | cytotoxicity at 0.43 µM (ARPE-19 cells [1]; [4]): < 10% |
| Cc1c(C)c2c(c(C)c1O)CCC(C)(C(=O)N(C)Cc1ncon1)O2 (centres unmarked) [K] | < 10 |  |  |
| Cc1c(C)c2c(c(C)c1O)CCC(C)(C(=O)N(C)Cc1ncc[nH]1)O2 (centres unmarked) [L] | < 10 |  |  |
| CC(C)(O)c1coc(S(=O)(=O)NC(=O)Nc2c3c(cc4c2CCC4)CCC3)c1 [MCC950, reference compound] |  |  | protective effect against ox-LDL-induced RPE cell death (ARPE-19 cells [1]; ox-LDL 200 μg/ml (FIG. 6)): did not have any protective effect |
| Cc1noc(C)c1CNC(=O)C1(C)CCc2c(C)c(O)c(C)c(C)c2O1 (centres unmarked) [M] |  |  | cytotoxicity at 0.43 µM (ARPE-19 cells [1]; [4]): < 10% |
| Cc1cc2n(n1)CCN(C(=O)C1(C)CCc3c(C)c(O)c(C)c(C)c3O1)C2 (centres unmarked) [N] | < 10 |  |  |
| Cc1c(C)c2c(c(C)c1O)CCC(C)(C(=O)N1CCC(c3ncc[nH]3)CC1)O2 (centres unmarked) [O] | < 10 |  |  |
| Cc1c(C)c2c(c(C)c1O)CCC(C)(C)O2 [PMC, 2,2,5,7,8-pentamethyl-6-chromanol, reference compound] |  |  | protection from ox-LDL-induced RPE cell death (ARPE-19 cells [1]; 0.43 μM, ox-LDL 200 μg/ml (FIG. 6)): > 95%; relative RPE protective activity compared with other compounds (ARPE-19 cells [1]): significantly more effective; also recorded: significantly more potent than trolox and butylated hydroxyl toluene (BHT) |
| CCc1cc(CN(C)C(=O)C2(C)CCc3c(C)c(O)c(C)c(C)c3O2)on1 (centres unmarked) [P] |  |  | cytotoxicity at 0.14 µM (ARPE-19 cells [1]; Homo sapiens, compound 0.14 μM, ARPE-19, ox-LDL 200 μg/ml, 48 hours, LDH assay, read-out: Protective activity against 200 μg/ml ox-LDL (% cell death, compound concentration)): ~60%; cytotoxicity at 0.43 µM (ARPE-19 cells [1]; [4]): < 10% |
| Cc1c(C)c2c(c(C)c1O)CCC(C)(C(=O)NCCNS(C)(=O)=O)O2 (centres unmarked) [Q] | ~50 | < 10 |  |
| Cc1c(C)c2c(c(C)c1O)CCC(C)(C(=O)N1CCOCC1)O2 (centres unmarked) [R] | < 10 |  |  |
| Cc1c(C)c2c(c(C)c1O)CCC(C)(C(=O)NCCCn1cncn1)O2 (centres unmarked) [S] |  | < 10 |  |
| CCN(Cc1ccccn1)C(=O)C1(C)CCc2c(C)c(O)c(C)c(C)c2O1 (centres unmarked) [T] | < 10 |  |  |
| Cc1c(C)c2c(c(C)c1O)CCC(C)(C(=O)N1CC(n3cccn3)C1)O2 (centres unmarked) [U] | < 10 |  |  |
| CCN(Cc1noc(COC)n1)C(=O)C1(C)CCc2c(C)c(O)c(C)c(C)c2O1 (centres unmarked) [V] | ~30 | < 10 |  |
| Cc1c(C)c2c(c(C)c1O)CCC(C)(C(=O)N(C)Cc1n[nH]c(=O)[nH]1)O2 (centres unmarked) [W] | < 12 |  |  |
| Cc1coc(C)c1CN(C)C(=O)C1(C)CCc2c(C)c(O)c(C)c(C)c2O1 (centres unmarked) [X] | ~22 | < 16 |  |
| Cc1c(C)c2c(c(C)c1O)CCC(C)(C(=O)N(C)CCCn1cccn1)O2 (centres unmarked) [Y] | ~22 | < 21 |  |
| Cc1c(C)c2c(c(C)c1O)CCC(C)(C(=O)N1CCNC(=O)C1)O2 (centres unmarked) [ZZ] | ~23 | < 13 |  |
| Cc1c(C)c2c(c(C)c1O)CCC(C)(C(=O)N(C)Cc1cc[nH]n1)O2 (centres unmarked) [Z] | ~22 | < 15 |  |
| O=C(/C=C/c1ccc(O)cc1)c1ccc(O)cc1O [isoliquiritigenin, reference compound] |  |  | protective effect against ox-LDL-induced RPE cell death (ARPE-19 cells [1]; ox-LDL 200 μg/ml (FIG. 6)): only protected RPE cells at high dose |
| Cc1c(C)c2c(c(C)c1O)CCC(C)(C(=O)O)O2 (centres unmarked) [trolox] |  |  | EC50 (ARPE-19 cells [1]; Homo sapiens, ARPE-19, ox-LDL 200 μg/ml, 48 hours, trolox 0.65-10.4 μM, LDH release (FIG. 2), read-out: estimated EC50, suppression of ox-LDL-induced RPE death): ~5.4 µM; relative RPE protective activity compared with other compounds (ARPE-19 cells [1]): significantly more effective; lysosomal integrity upon ox-LDL treatment (ARPE-19 cells [2]; ARPE-19, 36 hours (FIG. 3)): preserved lysosomal integrity; number of intact lysosomes per cell (ARPE-19 cells [2]; trolox 10.4 μM in the presence of ox-LDL, 36 hours): higher number of intact lysosomes per cell compared to control; NF-κB activation upon ox-LDL treatment (NF-κB): suppressed pro-inflammatory transcription factor NF-κB activation; ox-LDL-induced ROS formation in RPE cells (ARPE-19 cells [3]): suppressed ROS formation |
